Test results taken from article PMC4059234, “Edc3 Function in Yeast and Mammals Is Modulated by Interaction with NAD-Related Compounds” (G3: Genes|Genomes|Genetics, 2014).

Columns and labels:
hEdc3 = biological target: T1, hEdc3 (Homo sapiens, UniProt Q96F86); assay: isothermal titration calorimetry ([…]°, pH […]); type: binding
T1 construct: gene EDC3; full-length hEdc3
T1 sequence (Q96F86 1-508): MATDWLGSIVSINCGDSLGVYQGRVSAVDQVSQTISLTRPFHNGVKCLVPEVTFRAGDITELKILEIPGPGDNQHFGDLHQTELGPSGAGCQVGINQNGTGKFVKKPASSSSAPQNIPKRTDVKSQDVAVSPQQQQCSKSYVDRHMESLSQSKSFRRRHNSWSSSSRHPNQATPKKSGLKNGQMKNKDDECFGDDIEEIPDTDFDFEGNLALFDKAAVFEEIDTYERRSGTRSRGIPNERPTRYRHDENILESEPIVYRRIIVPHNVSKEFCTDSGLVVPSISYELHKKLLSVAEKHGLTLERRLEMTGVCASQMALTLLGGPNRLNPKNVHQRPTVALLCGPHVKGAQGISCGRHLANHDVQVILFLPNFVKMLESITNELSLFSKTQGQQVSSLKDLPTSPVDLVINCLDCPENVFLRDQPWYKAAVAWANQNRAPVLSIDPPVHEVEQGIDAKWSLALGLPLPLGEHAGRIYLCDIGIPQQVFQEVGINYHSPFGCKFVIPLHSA

yEdc3 = biological target: T2, yEdc3 (Saccharomyces cerevisiae, UniProt P39998); assay: thin-layer chromatography of […]-NAD incubated with recombinant protein; type: biochemical
T2 construct: gene EDC3; full-length recombinant yeast Edc3
T2 sequence (P39998 1-551): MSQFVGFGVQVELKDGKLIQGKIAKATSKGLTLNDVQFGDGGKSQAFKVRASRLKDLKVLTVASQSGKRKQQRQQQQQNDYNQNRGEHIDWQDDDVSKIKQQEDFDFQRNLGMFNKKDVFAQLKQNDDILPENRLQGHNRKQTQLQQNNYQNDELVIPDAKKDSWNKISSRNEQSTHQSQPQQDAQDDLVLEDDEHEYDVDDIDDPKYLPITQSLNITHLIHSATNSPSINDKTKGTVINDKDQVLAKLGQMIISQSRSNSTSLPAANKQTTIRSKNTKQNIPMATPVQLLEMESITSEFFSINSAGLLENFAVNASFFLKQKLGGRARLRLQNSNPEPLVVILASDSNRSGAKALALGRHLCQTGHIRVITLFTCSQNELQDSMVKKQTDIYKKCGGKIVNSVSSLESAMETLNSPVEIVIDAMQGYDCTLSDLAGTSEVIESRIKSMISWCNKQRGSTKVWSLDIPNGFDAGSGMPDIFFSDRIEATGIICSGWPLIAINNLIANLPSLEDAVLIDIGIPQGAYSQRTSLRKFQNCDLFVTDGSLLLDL

SMILES	Kd (hEdc3) [µM]	thin-layer chromatography of 32P-NAD incubated with recombinant protein (yEdc3)
NC(=O)C1=CN([C@@H]2O[C@H](COP(=O)(O)OP(=O)(O)OC[C@H]3O[C@@H](n4cnc5c(N)ncnc54)[C@H](O)[C@@H]3O)[C@@H](O)[C@H]2O)C=CC1 [NADH]	163 ± 27.4	
NC(=O)c1ccc[n+]([C@@H]2O[C@H](COP(=O)([O-])OP(=O)(O)OC[C@H]3O[C@@H](n4cnc5c(N)ncnc54)[C@H](O)[C@@H]3O)[C@@H](O)[C@H]2O)c1 [NAD]		Incubation of yeast WT Edc3 with radiolabeled NAD gave rise to two slower migrating species
